Several values for one entry are separate records, joined by “and”; a condition that tells them apart may be missing. Equal values may be shown once. One block for each molecule: values may come before it.
Tests used:
[1] = system: hepatoma cell line Huh-7, and breast cancer cell lines T47D and MCF-7; assay: Previous work: in vitro cultured human solid tumor cells treated with 3′-deoxyadenosine alone; assay type: cell-based; details: Huh-7, T47D and MCF-7, inventors' previous work
Source text: However, its effect was still not satisfactory.

[2] = system: MCF-7 (human breast cancer); assay: CellTiter-Glo luminescent cell viability assay, human breast cancer cells; assay type: cell-based; details: MCF7, MCF-7, 48 hours, drug used alone
Method: The above tumor cell line derived from ATCC was cultured in an incubator with 5% CO2 at 37° C.
(4). The culture plate was cultured overnight in an incubator with 5% CO2 and 100% relative humidity at 37° C.

Huh-7 (human hepatoma) = assay: CellTiter-Glo luminescent cell viability assay, human hepatoma cells; details: Huh-7, 48 h
Method: The above tumor cell line derived from ATCC was cultured in an incubator with 5% CO2 at 37° C. The cell line was subcultured twice per week by trypsinization. Cells in the logarithmic growth phase were used for plating.
The concentration of the cells was adjusted to 2×10^4 cells/ml (about 2.0×10^3 cells/well).
(3) 100 μl of a cell suspension was added to each well in the culture plate, and a cell-free culture solution was added to the blank control wells.
Dosing: 5 μl of the compound working solution (20×) was taken and added to the cell culture plate. 5 μl of a mixed solution of DMSO-cell culture solution was added to the solvent control and the blank control.
The 96-well culture plate was put back to the incubator for culture for 48 hours.
The following steps were performed according to the instructions of the Promega CellTiter-Glo Luminescent Cell Viability Assay Kit (Promega-G7571).
(6) 80 μl of the CellTiter-Glo working solution was added to each well. The cell plate was covered with aluminum foil to protect it from light.
The culture plate was shaken on an orbital shaker for 2 minutes to induce cell lysis.
The culture plate was allowed to stand at room temperature for 10 minutes to stabilize a luminescent signal.

[3] = system: human gastric cancer (SGC 7901); assay: Experiment 9: suppression of gastric cancer (SGC 7901) xenografts with 5-fluorouracil and 3′-deoxyadenosine; assay type: in vivo, BALB/c nude mouse; details: 5-fluorouracil 6 mg/kg, intravenous, 28th day
Source text: (§3) The inoculated well-grown subcutaneously xenografted tumors were removed and cut into tumor tissue blocks with a size of about 2×2×2 mm for later use. After being anesthetized, the mice were placed in the left lateral decubitus position, the tumor tissue blocks were put into the armpits of the mice, the skin was sutured and disinfected, and then the mice were put back into the cages and fed normally. The mice were grouped after the tumors grew to have a diameter of about 7 to 8 mm. […] The general symptoms of the animals were observed before and after the administration. The longer diameter (a) and shorter diameter (b) of each of the solid tumors were measured twice per week after the first administration, the tumor volume was calculated according to the formula: volume (V)=½×a×b^2, and the animals were weighed. The drug was discontinued after administration for 14 days. On the 7th day after stopping the administration, the animals were weighed and then were sacrificed by cervical dislocation, and the solid tumors were removed and weighed. The data obtained were analyzed by SPSS statistical analysis software.
Each group was administered with a drug once daily (volume 0.2 mL, intravenously) and measured twice per week.

[4] = system: human gastric cancer xenografts (SGC-7901); assay: Experiment 6: suppression of gastric cancer (SGC-7901) xenografts with capecitabine and 3′-deoxyadenosine; assay type: in vivo, BALB/c nude mouse; details: capecitabine 400 mg/Kg, 27th day
Source text: as §3

[5] = system: human breast cancer xenografts (MCF-7); assay: Experiment 1: suppression of breast cancer (MCF-7) xenografts with capecitabine and 3′-deoxyadenosine; assay type: in vivo, BALB/c nude mouse; details: capecitabine 400 mg/Kg/day
Method: (§1) Human leukemia cells HL60, human gastric cancer cell line SGC-7901, human breast cancer cells MCF-7, human colon cancer cells HT-29, human lung cancer cells A-549, and human hepatoma cells Huh-7 were routinely cultured in vitro and digested and centrifuged to prepare cell suspensions at a concentration of about 1×10^7 cells/mL, respectively, which were inoculated subcutaneously in the right armpits of the mice at 0.2 mL per mouse.
(§2) The inoculated well-grown subcutaneously xenografted tumors were removed and cut into tumor tissue blocks with a size of about 2×2×2 mm for later use. After being anesthetized, the mice were placed in the left lateral decubitus position, the tumor tissue blocks were put into the armpits of the mice, the skin was sutured and disinfected, and then the mice were put back into the cages and fed normally. The mice were grouped after the tumors grew to have a diameter of about 7 to 8 mm. […] The longer diameter (a) and shorter diameter (b) of each of the solid tumors were measured twice per week after the first administration, the tumor volume was calculated according to the formula: volume (V)=½×a×b^2, and the animals were weighed. […] The data obtained were analyzed by SPSS statistical analysis software. […]

[6] = system: human colon cancer xenografts (HT-29); assay: Experiment 7: suppression of colon cancer (HT-29) xenografts with capecitabine and 3′-deoxyadenosine; assay type: in vivo, BALB/c nude mouse; details: capecitabine 400 mg/Kg, 31st day
Source text: as §3

[7] = system: human lung cancer xenografts (A-549); assay: Experiment 4: suppression of lung cancer (A-549) xenografts with cisplatin and 3′-deoxyadenosine; assay type: in vivo, BALB/c nude mouse
Method: as §1
The inoculated well-grown subcutaneously xenografted tumors were removed and cut into tumor tissue blocks with a size of about 2×2×2 mm for later use. After being anesthetized, the mice were placed in the left lateral decubitus position, the tumor tissue blocks were put into the armpits of the mice, the skin was sutured and disinfected, and then the mice were put back into the cages and fed normally. The mice were grouped after the tumors grew to have a diameter of about 7 to 8 mm. Generally, after being grouped, the mice were administered by gavage with a drug or with a blank solution (solvent: 0.9% (g/mL) sodium chloride injection) for continuous 14 days, once per day, administrated at a volume of 20 mL/kg. Special situations will be described separately in corresponding examples. The general symptoms of the animals were observed before and after the administration. The longer diameter (a) and shorter diameter (b) of each of the solid tumors were measured twice per week after the first administration, the tumor volume was calculated according to the formula: volume (V)=½×a×b^2, and the animals were weighed. The drug was discontinued after administration for 14 days. On the 7th day after stopping the administration, the animals were weighed and then were sacrificed by cervical dislocation, and the solid tumors were removed and weighed. The data obtained were analyzed by SPSS statistical analysis software.
Formula for Evaluation of the Therapeutic Efficacy: Tumor-growth inhibition rate=(average tumor weight in solvent control group−average tumor weight in administered control group)/average tumor weight in solvent control group×100%.
On the 14th day after inoculation of the mice with lung cancer A-549 cells, xenografted tumor models were successful, and then treated with drugs. Refer to FIG. 4 for experimental results.

[8] = system: human hepatoma xenografts (Huh-7); assay: Experiment 5: suppression of hepatoma (Huh-7) xenografts with doxorubicin and 3′-deoxyadenosine; assay type: in vivo, BALB/c nude mouse; details: doxorubicin 2.5 mg/kg, 37th day
Source text: as §3
On the 23rd day after inoculation of the mice with human hepatoma Huh-7 cells, xenografted tumor models were successful, and then treated with drugs.

[9] = system: human leukemia xenografts (HL60); assay: Experiment 2: suppression of leukemia (HL60) xenografts with doxorubicin and 3′-deoxyadenosine; assay type: in vivo, BALB/c nude mouse
Method: as §1, §2

IC50 [2]: 850 nM
IC50 (Huh-7 (human hepatoma)): 1350 nM
Compound: Nc1ncnc2c1ncn2[C@@H]1O[C@H](CO)C[C@H]1O [3′-deoxyadenosine]
inhibition of proliferation [1]: could inhibit the proliferation

Compound: O=c1[nH]cc(F)c(=O)[nH]1 [5-fluorouracil]
inhibition rate [3]: 67.5%

Compound: CCCCCOC(=O)Nc1nc(=O)n([C@@H]2O[C@H](C)[C@@H](O)[C@H]2O)cc1F [capecitabine]
inhibition rate [4]: 57.8%
experimental animals died ([5]; 11th day of the experiment, 7 mice per group): 5
tumor inhibition rate ([5]; 11th day, vs normal saline group): 86.1%
inhibition rate [6]: 80.1%

Compound: N.N.[Cl][Pt][Cl] [cisplatin]
mice died ([7]; cisplatin 5 mg/kg/day, 7th day, 7 mice per group): two nude mice died
mice died ([7]; cisplatin 5 mg/kg/day, 10th day, 7 mice per group): 4
mice died (total) ([7]; cisplatin 5 mg/kg/day, reduced to 2.5 mg/kg on the 15th day, 18th day, 7 mice per group): 5 and 5/7
inhibitory effect on tumor growth ([7]; high-dosage cisplatin (5 mg/kg)): good inhibitory effect on tumor growth

Compound: COc1cccc2c1C(=O)c1c(O)c3c(c(O)c1C2=O)C[C@@](O)(C(=O)CO)C[C@@H]3O[C@H]1C[C@H](N)[C@H](O)[C@H](C)O1 [doxorubicin]
tumor-growth inhibition rate [8]: 25.7%
IC50 [2]: 510 nM
tumor-growth inhibition rate ([9]; doxorubicin 60 mg/kg/week (20 mg/kg each time, 3 times/week), 14th day): 21.4%
experimental animals died ([9]; doxorubicin 60 mg/kg/week, 14th day of the experiment, 7 mice per group): one experimental animal in this group died
IC50 (Huh-7 (human hepatoma)): 1200 nM

IC50 [2]: 742 nM
Compound: CC(=O)O[C@H]1C(=O)[C@@]2(C)[C@H]([C@H](OC(=O)c3ccccc3)[C@]3(O)C[C@H](OC(=O)[C@H](O)[C@@H](NC(=O)c4ccccc4)c4ccccc4)C(C)=C1C3(C)C)[C@]1(OC(C)=O)CO[C@@H]1C[C@@H]2O [paclitaxel]
